# Patent US6211200A, “Metal complexes” (SmithKline Beecham Corporation, priority 1998, dated 2001)
# B1: recombinant G-CSF: natural ligand for the G-CSF receptor (G-CSF or recombinant G-CSF) (protein, UniProt P09919 31-207, looked up)
# Granulocyte …: TPLGPASSLPQSFLLKCLEQVRKIQGDGAALQEKLVSECATYKLCHPEELVLLGHSLGIPWAPLSSCPSQALQLAGCLSQLHSGLFLYQGLLQALEGISPELGPTLDTLQLDVADFATTIWQQMEELGMAPALQPTQGAMPAFASAFQRRAGGVLVASHLQSFLEVSYRVLRHLAQP
# Tests used:
# G-CSF receptor [1] = biological target: T1, G-CSF receptor (Mus musculus, UniProt P40223); assay: Luciferase reporter gene assay in G-CSF-responsive NFS60 cells; type: cell-based, murine; settings: for activation in the luciferase assay: concentration range of 1 to 100 micromolar
# T1 construct: they express endogenous G-CSF receptors; endogenous in cells; host or cells: NFS60 (murine myeloid cell line) containing a G-CSF-responsive element / luciferase reporter
# T1 sequence (P40223 26-837): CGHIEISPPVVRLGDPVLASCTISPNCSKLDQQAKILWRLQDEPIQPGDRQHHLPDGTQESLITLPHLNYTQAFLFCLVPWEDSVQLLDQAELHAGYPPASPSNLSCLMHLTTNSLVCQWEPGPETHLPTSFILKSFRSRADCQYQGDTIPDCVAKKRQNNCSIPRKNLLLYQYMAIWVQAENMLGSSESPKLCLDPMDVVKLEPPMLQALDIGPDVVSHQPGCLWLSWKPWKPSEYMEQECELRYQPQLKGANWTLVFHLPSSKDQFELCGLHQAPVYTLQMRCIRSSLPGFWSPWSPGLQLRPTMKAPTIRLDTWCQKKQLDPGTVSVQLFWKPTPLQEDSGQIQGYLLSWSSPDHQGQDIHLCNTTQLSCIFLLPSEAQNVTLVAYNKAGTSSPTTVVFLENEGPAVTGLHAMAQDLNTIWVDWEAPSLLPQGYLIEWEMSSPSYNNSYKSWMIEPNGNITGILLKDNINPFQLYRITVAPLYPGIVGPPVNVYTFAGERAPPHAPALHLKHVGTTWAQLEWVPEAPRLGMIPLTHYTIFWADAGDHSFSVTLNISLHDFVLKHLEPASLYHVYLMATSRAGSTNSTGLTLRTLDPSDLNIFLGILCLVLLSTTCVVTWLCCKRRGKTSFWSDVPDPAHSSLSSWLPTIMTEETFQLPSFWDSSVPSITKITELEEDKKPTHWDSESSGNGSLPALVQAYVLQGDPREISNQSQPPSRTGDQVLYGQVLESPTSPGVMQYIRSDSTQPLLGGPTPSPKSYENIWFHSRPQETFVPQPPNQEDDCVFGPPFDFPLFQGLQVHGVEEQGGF
# Protocol: Activity of compound 1a is below the threshold of 150% over background. The study was performed as a Luciferase assay configured on the G-CSF-responsive NFS60 cell line as described in Tian et al., Science 281, 257-259 (1998). The experiments shown in FIGS. 2-8 used the same NFS60 cell line.
# Compounds of the present invention were tested for potency as agonist of the G-CSF receptor in a Luciferase reporter gene assay such as described in Tian et al., Science 281, 257-259 (1998). The NFS60 cells (Holmes, et al., Proc. Natl. Acad. Sci. USA 82:6687-6691 (1985)) were selected because they express endogenous G-CSF receptors closely matching the pattern of STAT (signal transducers and activators of transcription) activation observed in primary murine and human bone marrow cells.
# G-CSF receptor [2] = biological target: T1, G-CSF receptor; assay: Luciferase assay in NFS60 cells in the presence of EDTA; type: cell-based, murine; settings: for G-CSF agonist activity in the presence of EDTA (metal ion mediation): FIGS. 3 and 4
# Protocol: The media in this assay contained a small amount (1-5 uM) of zinc(II).
# In order to determine the requisiteness of zinc chelation of small organic molecules to agonist activity at the G-CSF receptor, the above luciferase assay was performed in the presence of EDTA.
# G-CSF/Fc fusion protein = assay: Isothermal titration microcalorimetry; type: binding; settings: in the presence of zinc
# Protocol: Zinc-mediated affinity of compounds from this invention for the G-CSF receptor was measured by isothermal titration microcalorimetry experiments. Titration microcalorimetry detects binding as heat originating from the intrinsic bond forming enthalpy change. […] In a separate experiment, the compounds were then assayed in the presence of zinc and a G-CSF/Fc fusion protein, which contained the extracellular domain of the G-CSF receptor presented in a dimeric form due to the Fc component.
# [3] = system: peripheral blood neutrophil and monocyte count; assay: In vivo evaluation of peripheral blood neutrophil and monocyte count; settings: mouse
# Protocol: Compounds of this invention are also tested for activity in the following assays: CFU-G assay (an example of which is described in King […]., Badger A. M., Pelus L. M. Regulation of colony stimulating activity production from bone marrow stromal cells by the hematoregulatory peptide, HP-5. Exp. […] M.; King, […].; DeMarsh, […]., In vivo modulation of hematopoiesis by a novel hematoregulatory peptide Exp-Hematol. 1994 22(3):239-47).
# CFU-G = CFU-G assay; type: cell-based, murine; settings: concentration range of 1 to 100 micromolar
# Protocol: Compounds of this invention are also tested for activity in the following assays: CFU-G assay (an example of which is described in King A. G., Talmadge J., Badger A. M., Pelus L. M. Regulation of colony stimulating activity production from bone marrow stromal cells by the hematoregulatory peptide, HP-5. Exp. Hematol. 20:223-228, 1992) and in vivo evaluation of peripheral blood neutrophil and monocyte count in the mouse (an example of which is described in Pelus, L. M.; King, A. G.; Broxmeyer, H. E.; DeMarsh, P. L.; Petteway, S. R.; Bhatnagar, P. K., In vivo modulation of hematopoiesis by a novel hematoregulatory peptide Exp-Hematol. 1994 22(3):239-47). In order to confirm the requirement for zinc(II) chelation, the above CFU-G assay was also conducted in the presence of EDTA.
Molecule,activation in the luciferase assay (G-CSF receptor [1]),G-CSF agonist activity in the presence of EDTA (metal ion mediation) (G-CSF receptor [2]),affinity for G-CSF/Fc fusion protein (G-CSF/Fc fusion protein),peripheral blood neutrophil and monocyte count [3],activation in the murine CFU-G assay (CFU-G),also measured
"c1ccc(C23NC(=Nc4nc5ccccc5[nH]4)NC2(c2ccccc2)NC(=Nc2nc4ccccc4[nH]2)N3)cc1 (stereo not drawn) [Compound 2a, 2,5-Bis[2-benzimidazolylimino]-3a,6a-diphenyl-1,2,3,3a,4,5,6,6a-octahydroimidazo[4,5-d]imidazole]",above 150 % of control,,,,,
"c1ccc(C23NC(=Nc4nc5ccccc5[nH]4)NC2(c2ccccn2)NC(=Nc2nc4ccccc4[nH]2)N3)nc1 (stereo not drawn) [Compound 1a, 2,5-Bis[2-benzimidazolylimino]-3a,6a-bis(2-pyridyl)-1,2,3,3a,4,5,6,6a-octahydroimidazo[4,5-d]imidazole]",above 150 % of control,abrogated,"high, submicromolar affinity",elevation of peripheral blood neutrophil and monocyte count,above 150 % of control,"effect of EDTA on luciferase activity (G-CSF receptor [2]; EDTA 1.2 millimolar, media contained 1-5 uM zinc(II), FIG. 3): antagonized; luciferase activity (G-CSF agonist activity) (G-CSF receptor [1]; NFS60 cells, absence of zinc, FIG. 1): < 150 % over background; luciferase activity (G-CSF receptor [1]; NFS60 cells, presence of 1 uM zinc (II), FIG. 2): about 350 % over control; G-CSF agonist efficacy (G-CSF receptor [1]; presence of 1 uM zinc(II), at 1 uM, FIG. 2): 350 % over background"
zinc (II) [reference compound],,,,,,"effect of metal chlorides on the EDTA depleted activity of Compound 1a (G-CSF receptor [2]; 50 micromolar EDTA, metal at 0.5-10 micromolar, FIGS. 7 and 8): can overcome the inhibition"
"Cc1ccc2nc(N=C3NC4(c5ccccn5)NC(=Nc5nc6ccccc6[nH]5)NC4(c4ccccn4)N3)[nH]c2c1.O=C(O)C(F)(F)F.O=C(O)C(F)(F)F (stereo not drawn) [Compound 3a, 5-(2-benzimidazolylimino)-2-[(5-methyl-2-benzimidazolyl)imino]-3a,6a-bis(2-pyridyl)-1,2,3,3a,4,5,6,6a-octahydroimidazo[4,5-d]imidazole bis(trifluoroacetate) salt]",above 150 % of control,,"high, submicromolar affinity",elevation of peripheral blood neutrophil and monocyte count,above 150 % of control,
"[Zn+2].c1ccc(C23NC(=Nc4nc5ccccc5[nH]4)NC2(c2ccccn2)NC(=Nc2nc4ccccc4[nH]2)N3)nc1.c1ccc(C23NC(=Nc4nc5ccccc5[nH]4)NC2(c2ccccn2)NC(=Nc2nc4ccccc4[nH]2)N3)nc1 (stereo not drawn) [Compound 1, Bis{2,5-bis[2-benzimidazolylimino]-3a,6a-bis(2-pyridyl)-1,2,3,3a,4,5,6,6a-octahydroimidazo[4,5-d]imidazole-N,N'}-zinc(II)]",above 150 % of control,,,,,
B1,,not mediated by metal ions,,,,"effect of EDTA on luciferase activity (G-CSF receptor [2]; EDTA 1.2 and 5 millimolar, FIG. 4): little effect"
